Reference: the NIST ThermoML archive (doi:10.1016/j.fluid.2011.06.011)
± gives the expanded uncertainty stated by the source.

Test: xn = mol fraction of the nth substance listed
Settings: Liquid; for speed of sound: Sing-around technique in a fixed-path interferometer; for mass density: Vibrating tube method

C=CC(C)(O)CCC=C(C)C (stereo not drawn) [3,7-dimethyl-1,6-octadien-3-ol] + CCO
Settings | mass density, 313.15 K [kg/m3] | mass density, 328.15 K [kg/m3] | speed of sound, 313.15 K [m/s] | speed of sound, 328.15 K [m/s]
101 kPa, x1 = 0.0493 | – | – | – | 1070.8 ± 0.7
101 kPa, x1 = 0.0506 | 784.31 ± 0.13 | 770.91 ± 0.14 | – | –
101 kPa, x1 = 0.0507 | – | – | 1122.4 ± 0.7 | –
101 kPa, x1 = 0.0996 | – | – | 1142.3 ± 0.7 | –
101 kPa, x1 = 0.1008 | 794.24 ± 0.13 | 780.72 ± 0.14 | – | 1095.1 ± 0.7
101 kPa, x1 = 0.1969 | 808.41 ± 0.14 | 795.22 ± 0.14 | 1177.2 ± 0.8 | 1125 ± 0.8
101 kPa, x1 = 0.2884 | 818.41 ± 0.16 | 805.21 ± 0.16 | – | –
101 kPa, x1 = 0.2959 | – | – | 1200.7 ± 1 | 1147.3 ± 0.9
101 kPa, x1 = 0.3918 | – | – | 1218.2 ± 1.1 | –
101 kPa, x1 = 0.3957 | 826.66 ± 0.19 | 813.44 ± 0.19 | – | 1163.9 ± 1.1
101 kPa, x1 = 0.4803 | 831.36 ± 0.23 | 818.17 ± 0.23 | – | –
101 kPa, x1 = 0.4834 | – | – | – | 1173.9 ± 1.2
101 kPa, x1 = 0.4854 | – | – | 1230.3 ± 1.2 | –
101 kPa, x1 = 0.593 | 835.94 ± 0.29 | 822.82 ± 0.29 | 1240 ± 1.4 | 1185.1 ± 1.4
101 kPa, x1 = 0.6838 | 838.63 ± 0.34 | 825.57 ± 0.34 | 1247.1 ± 1.5 | 1193.8 ± 1.5
101 kPa, x1 = 0.7832 | – | – | 1252.8 ± 1.7 | 1199 ± 1.7
101 kPa, x1 = 0.8438 | 841.86 ± 0.47 | 828.96 ± 0.46 | – | –
101 kPa, x1 = 0.8633 | – | – | 1257 ± 1.8 | 1203.2 ± 1.8
101 kPa, x1 = 0.8941 | 842.75 ± 0.51 | 829.77 ± 0.5 | – | –
101 kPa, x1 = 0.9286 | 843.29 ± 0.54 | 830.31 ± 0.53 | 1259.5 ± 1.9 | 1206.3 ± 1.9
101 kPa, x1 = 1 | 844.29 ± 0.61 | 831.31 ± 0.6 | 1260.8 ± 2 | 1207.6 ± 2
20000 kPa, x1 = 0.0511 | 801 ± 0.6 | 789.2 ± 0.6 | – | –
20000 kPa, x1 = 0.1003 | 809.9 ± 0.6 | 798.3 ± 0.6 | – | –
20000 kPa, x1 = 0.1962 | 823 ± 0.6 | 811.4 ± 0.6 | – | –
20000 kPa, x1 = 0.2989 | 833.1 ± 0.6 | 821.4 ± 0.6 | – | –
20000 kPa, x1 = 0.3996 | 840 ± 0.6 | 828.3 ± 0.6 | – | –
20000 kPa, x1 = 0.5015 | 845.2 ± 0.6 | 833.5 ± 0.6 | – | –
20000 kPa, x1 = 0.5982 | 848.8 ± 0.6 | 837.1 ± 0.6 | – | –
20000 kPa, x1 = 0.6898 | 851.6 ± 0.7 | 839.9 ± 0.7 | – | –
20000 kPa, x1 = 0.7929 | 854.1 ± 0.7 | 842.5 ± 0.7 | – | –
20000 kPa, x1 = 0.8885 | 856 ± 0.8 | 844.4 ± 0.8 | – | –
20000 kPa, x1 = 0.9435 | 856.9 ± 0.8 | 845.3 ± 0.8 | – | –
20000 kPa, x1 = 1 | 857.6 ± 0.8 | 846 ± 0.8 | – | –
25000 kPa, x1 = 0.0511 | 804.8 ± 0.6 | 793.4 ± 0.6 | – | –
25000 kPa, x1 = 0.1003 | 813.7 ± 0.6 | 802.2 ± 0.6 | – | –
25000 kPa, x1 = 0.1962 | 826.7 ± 0.6 | 815.2 ± 0.6 | – | –
25000 kPa, x1 = 0.2989 | 836.6 ± 0.6 | 825.1 ± 0.6 | – | –
25000 kPa, x1 = 0.3996 | 843.5 ± 0.6 | 831.9 ± 0.6 | – | –
25000 kPa, x1 = 0.5015 | 848.6 ± 0.6 | 837 ± 0.6 | – | –
25000 kPa, x1 = 0.5982 | 852.2 ± 0.6 | 840.6 ± 0.7 | – | –
25000 kPa, x1 = 0.6898 | 854.9 ± 0.7 | 843.4 ± 0.7 | – | –
25000 kPa, x1 = 0.7929 | 857.4 ± 0.7 | 845.9 ± 0.7 | – | –
25000 kPa, x1 = 0.8885 | 859.3 ± 0.8 | 847.8 ± 0.8 | – | –
25000 kPa, x1 = 0.9435 | 860.1 ± 0.8 | 848.6 ± 0.8 | – | –
25000 kPa, x1 = 1 | 860.9 ± 0.9 | 849.3 ± 0.9 | – | –
30000 kPa, x1 = 0.0511 | 808.5 ± 0.6 | 797.1 ± 0.6 | – | –
30000 kPa, x1 = 0.1003 | 817.2 ± 0.6 | 806 ± 0.6 | – | –
30000 kPa, x1 = 0.1962 | 830.1 ± 0.6 | 818.8 ± 0.6 | – | –
30000 kPa, x1 = 0.2989 | 839.9 ± 0.6 | 828.6 ± 0.6 | – | –
30000 kPa, x1 = 0.3996 | 846.7 ± 0.6 | 835.3 ± 0.6 | – | –
30000 kPa, x1 = 0.5015 | 851.7 ± 0.6 | 840.4 ± 0.6 | – | –
30000 kPa, x1 = 0.5982 | 855.3 ± 0.7 | 843.9 ± 0.7 | – | –
30000 kPa, x1 = 0.6898 | 858 ± 0.7 | 846.7 ± 0.7 | – | –
30000 kPa, x1 = 0.7929 | 860.5 ± 0.7 | 849.2 ± 0.8 | – | –
30000 kPa, x1 = 0.8885 | 862.3 ± 0.8 | 851 ± 0.8 | – | –
30000 kPa, x1 = 0.9435 | 863.1 ± 0.8 | 851.9 ± 0.8 | – | –
30000 kPa, x1 = 1 | 863.9 ± 0.9 | 852.6 ± 0.9 | – | –
35000 kPa, x1 = 0.0511 | 812 ± 0.6 | 800.7 ± 0.6 | – | –
35000 kPa, x1 = 0.1003 | 820.6 ± 0.6 | 809.6 ± 0.6 | – | –
35000 kPa, x1 = 0.1962 | 833.3 ± 0.6 | 822.3 ± 0.6 | – | –
35000 kPa, x1 = 0.2989 | 843 ± 0.6 | 832 ± 0.6 | – | –
35000 kPa, x1 = 0.3996 | 849.6 ± 0.6 | 838.6 ± 0.6 | – | –
35000 kPa, x1 = 0.5015 | 854.7 ± 0.6 | 843.6 ± 0.7 | – | –
35000 kPa, x1 = 0.5982 | 858.3 ± 0.7 | 847.2 ± 0.7 | – | –
35000 kPa, x1 = 0.6898 | 861 ± 0.7 | 849.9 ± 0.7 | – | –
35000 kPa, x1 = 0.7929 | 863.4 ± 0.8 | 852.3 ± 0.8 | – | –
35000 kPa, x1 = 0.8885 | 865.3 ± 0.8 | 854.2 ± 0.8 | – | –
35000 kPa, x1 = 0.9435 | 866.1 ± 0.9 | 855 ± 0.9 | – | –
35000 kPa, x1 = 1 | 866.8 ± 0.9 | 855.7 ± 0.9 | – | –
40000 kPa, x1 = 0.0511 | 815.4 ± 0.6 | 804.6 ± 0.6 | – | –
40000 kPa, x1 = 0.1003 | 824 ± 0.6 | 813.1 ± 0.6 | – | –
40000 kPa, x1 = 0.1962 | 836.5 ± 0.6 | 825.6 ± 0.6 | – | –
40000 kPa, x1 = 0.2989 | 846.2 ± 0.6 | 835.2 ± 0.6 | – | –
40000 kPa, x1 = 0.3996 | 852.8 ± 0.6 | 841.8 ± 0.6 | – | –
40000 kPa, x1 = 0.5015 | 857.8 ± 0.7 | 846.7 ± 0.7 | – | –
40000 kPa, x1 = 0.5982 | 861.3 ± 0.7 | 850.3 ± 0.7 | – | –
40000 kPa, x1 = 0.6898 | 864 ± 0.7 | 853 ± 0.7 | – | –
40000 kPa, x1 = 0.7929 | 866.3 ± 0.8 | 855.4 ± 0.8 | – | –
40000 kPa, x1 = 0.8885 | 868.2 ± 0.8 | 857.2 ± 0.8 | – | –
40000 kPa, x1 = 0.9435 | 869 ± 0.9 | 858.1 ± 0.9 | – | –
40000 kPa, x1 = 1 | 869.7 ± 0.9 | 858.8 ± 0.9 | – | –
